In patent publication US12240862B2, “Inhibitors of peptidylarginine deiminases” (Gilead Sciences, Inc., priority 2020, dated 2025):
pIC50: −log10 of the molar value.

These molecules were tested against T1, human PAD4 (Homo sapiens, UniProt Q9UM07) (assay: In vitro PAD4 BAEE biochemical assay). Details: human PAD4, BAEE substrate; 5 nM PAD4, 2 mM calcium chloride, 3 mM BAEE; geometric mean of multiple experiments.
T1 construct: human PAD4 (NM_012387), A2P663, was PCR amplified; His-SUMO (N, cleaved yes); made in house; host or cells: E. coli BL21(DE3)
T1 sequence (Q9UM07 2-663): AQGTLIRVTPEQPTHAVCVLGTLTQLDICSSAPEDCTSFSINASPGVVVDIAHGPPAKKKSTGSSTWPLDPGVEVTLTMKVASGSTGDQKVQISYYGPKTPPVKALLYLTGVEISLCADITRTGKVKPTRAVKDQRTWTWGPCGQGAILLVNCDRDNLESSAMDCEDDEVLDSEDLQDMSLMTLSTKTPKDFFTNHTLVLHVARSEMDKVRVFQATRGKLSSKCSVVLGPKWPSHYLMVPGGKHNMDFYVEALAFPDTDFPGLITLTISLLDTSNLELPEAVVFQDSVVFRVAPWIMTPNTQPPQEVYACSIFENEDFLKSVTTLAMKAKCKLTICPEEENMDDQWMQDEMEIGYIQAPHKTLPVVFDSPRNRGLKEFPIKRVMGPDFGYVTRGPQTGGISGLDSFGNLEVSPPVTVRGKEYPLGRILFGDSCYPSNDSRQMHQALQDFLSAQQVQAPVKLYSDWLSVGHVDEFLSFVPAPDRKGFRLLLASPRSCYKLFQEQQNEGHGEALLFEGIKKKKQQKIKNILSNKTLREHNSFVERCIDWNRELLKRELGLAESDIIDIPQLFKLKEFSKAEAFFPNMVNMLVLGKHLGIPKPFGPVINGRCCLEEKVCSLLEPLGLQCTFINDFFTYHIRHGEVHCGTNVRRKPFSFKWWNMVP
Summary of the method: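 Tag-free recombinant hPAD4 (5 nM), 2 mM CaCl2, 3 mM BAEE, 50 mM MOPS pH 7.6, 2 mM DTT; 30 min compound preincubation, 2 h reaction, all 25 °C. EDTA quench; ammonia read via o-phthalaldehyde amine coupling, 1 h.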

| SMILES | pIC50 |
| --- | --- |
| COc1cc(C(=O)N2CCC[C@@H](N)C2)cc2nc(-c3cc4ccc([C@@H](C)N(C)C(=O)c5ccccc5)nc4n3CC3CC3)c(C)n12 [Example 186, ~{N}-[(1~{R})-1-[2-[7-[(3~{R})-3-aminopiperidine-1-carbonyl]-5-methoxy-3-methylimidazo [1,2-a]pyridin-2-yl]-1-(cyclopropylmethyl)pyrrolo [2,3-b]pyridin-6-yl]ethyl]-~{N}-methylbenzamide] | 6.56 |
| COc1cc(C(=O)N2CCC[C@@H](N)C2)cc2nc(-c3cc4ccc([C@@H](C)N(C)C(C)=O)nc4n3CC3CC3)c(C)n12 [Example 187, ~{N}-[(1~{R})-1-[2-[7-[(3~{R})-3-aminopiperidine-1-carbonyl]-5-methoxy-3-methylimidazo [1,2-a]pyridin-2-yl]-1-(cyclopropylmethyl)pyrrolo [2,3-b]pyridin-6-yl]ethyl]-~{N}-methylacetamide] | 6.52 |
| COc1cc(C(=O)N2C[C@H](N)[C@@H]3CC[C@H]2C3)cc2nc(-c3cc4ccc([C@@H](C)NC(=O)C56CC(F)(C5)C6)nc4n3CC3CC3)c(C)n12 [Example 189, N—((R)-1-(2-(7-((1S,4R,5R)-4-amino-2-azabicyclo[3.2.1]octane-2-carbonyl)-5-methoxy-3-methylimidazo[1,2-a]pyridin-2-yl)-1-(cyclopropylmethyl)-1H-pyrrolo[2,3-b]pyridin-6-yl)ethyl)-3-fluorobicyclo[1.1.1]pentane-1-carboxamide] | 7.17 |
| COc1cc(C(=O)N2[C@H]3CC[C@@H]2[C@H](N)C3)cc2nc(-c3cc4ccc([C@H](NC(=O)C5(C#N)CC5)C(F)(F)F)nc4n3CC3CC3)c(C)n12 [Example 191, ~{N}-[(1~{S})-1-[2-[7-[(1~{R},2~{R},4~{S})-2-amino-7-azabicyclo[2.2.1]heptane-7-carbonyl]-5-methoxy-3-methylimidazo [1,2-a]pyridin-2-yl]-1-(cyclopropylmethyl)pyrrolo [2,3-b]pyridin-6-yl]-2,2,2-trifluoroethyl]-1-cyanocyclopropane-1-carboxamide] | 6.15 |
| COc1cc(C(=O)N2[C@H]3CC[C@@H]2[C@H](N)C3)cc2nc(-c3cc4ccc(C(NC(=O)C(C)(C)C)C(F)(F)F)nc4n3CC3CC3)c(C)n12 (stereo partly drawn) [Example 192, ~{N}-[1-[2-[7-[(1~{R},2~{R},4~{S})-2-amino-7-azabicyclo[2.2.1]heptane-7-carbonyl]-5-methoxy-3-methylimidazo [1,2-a]pyridin-2-yl]-1-(cyclopropylmethyl)pyrrolo [2,3-b]pyridin-6-yl]-2,2,2-trifluoroethyl]-2,2-dimethylpropanamide] | 6.16 |
| CCC(NC(C)=O)c1ccc2cc(-c3nc4cc(C(=O)N5CCC[C@@H](N)C5)cc(OC)n4c3C)n(CC3CC3)c2n1 (stereo partly drawn) [Example 193, ~{N}-[1-[2-[7-[(3~{R})-3-aminopiperidine-1-carbonyl]-5-methoxy-3-methylimidazo [1,2-a]pyridin-2-yl]-1-(cyclopropylmethyl)pyrrolo [2,3-b]pyridin-6-yl]propyl]acetamide] | 6.40 |
| COc1cc(C(=O)N2CCC[C@@H](N)C2)cc2nc(-c3cc4ccc(C(NC(C)=O)C5CC5)nc4n3CC3CC3)c(C)n12 (stereo partly drawn) [Example 194, N-((2-(7-((R)-3-aminopiperidine-1-carbonyl)-5-methoxy-3-methylimidazo[1,2-a]pyridin-2-yl)-1-(cyclopropylmethyl)-1H-pyrrolo[2,3-b]pyridin-6-yl)(cyclopropyl)methyl)acetamide] | 5.96 |
| COc1cc(C(=O)N2CCC[C@@H](N)C2)cc2nc(-c3cc4ccc(C(NC(C)=O)C(C)C)nc4n3CC3CC3)c(C)n12 (stereo partly drawn) [Example 195, ~{N}-[1-[2-[7-[(3~{R})-3-aminopiperidine-1-carbonyl]-5-methoxy-3-methylimidazo [1,2-a]pyridin-2-yl]-1-(cyclopropylmethyl)pyrrolo [2,3-b]pyridin-6-yl]-2-methylpropyl]acetamide] | 6.28 |
| COc1cc(C(=O)N2[C@H]3CC[C@@H]2[C@H](N)C3)cc2nc(-c3cc4ccc([C@@H](C)NC(=O)N5C[C@H]6OCC[C@H]65)nc4n3CC3CC3)c(C)n12 [Example 196, (1~{R},5~{R})-~{N}-[(1~{R})-1-[2-[7-[(1~{R},2~{R},4~{S})-2-amino-7-azabicyclo[2.2.1]heptane-7-carbonyl]-5-methoxy-3-methylimidazo [1,2-a]pyridin-2-yl]-1-(cyclopropylmethyl)pyrrolo [2,3-b]pyridin-6-yl]ethyl]-2-oxa-6-azabicyclo [3.2.0]heptane-6-carboxamide] | 7.53 |
| COc1cc(C(=O)N2[C@H]3CC[C@@H]2[C@H](N)C3)cc2nc(-c3cc4ccc([C@@H](C)NC(=O)N5CC(O)(C(F)(F)F)C5)nc4n3CC3CC3)c(C)n12 [Example 197, ~{N}-[(1~{R})-1-[2-[7-[(1~{R},2~{R},4~{S})-2-amino-7-azabicyclo[2.2.1]heptane-7-carbonyl]-5-methoxy-3-methylimidazo [1,2-a]pyridin-2-yl]-1-(cyclopropylmethyl)pyrrolo [2,3-b]pyridin-6-yl]ethyl]-3-hydroxy-3-(trifluoromethyl)azetidine-1-carboxamide] | 7.38 |
| COc1cc(C(=O)N2[C@H]3CC[C@@H]2[C@H](N)C3)cc2nc(-c3cc4ccc([C@@H](C)NC(=O)Nc5ccc(F)cc5F)nc4n3CC3CC3)c(C)n12 [Example 198, 1-[(1~{R})-1-[2-[7-[(1~{R},2~{R},4~{S})-2-amino-7-azabicyclo[2.2.1]heptane-7-carbonyl]-5-methoxy-3-methylimidazo [1,2-a]pyridin-2-yl]-1-(cyclopropylmethyl)pyrrolo [2,3-b]pyridin-6-yl]ethyl]-3-(2,4-difluorophenyl)urea] | 6.73 |
| COc1cc(C(=O)N2[C@H]3CC[C@@H]2[C@H](N)C3)cc2nc(-c3cc4ccc([C@@H](C)NC(=O)N5CCOC[C@@H]5C(F)(F)F)nc4n3CC3CC3)c(C)n12 [Example 199, (3~{R})-~{N}-[(1~{R})-1-[2-[7-[(1~{R}, 2~{R},4~{S})-2-amino-7-azabicyclo[2.2.1]heptane-7-carbonyl]-5-methoxy-3-methylimidazo [1,2-a]pyridin-2-yl]-1-(cyclopropylmethyl)pyrrolo [2,3-b]pyridin-6-yl]ethyl]-3-(trifluoromethyl)morpholine-4-carboxamide] | 7.45 |
| COc1cc(C(=O)N2[C@H]3CC[C@@H]2[C@H](N)C3)cc2nc(-c3cc4ccc([C@@H](C)NC(=O)N5CCOC[C@H]5C(F)(F)F)nc4n3CC3CC3)c(C)n12 [Example 200, (3~{S})-~{N}-[(1~{R})-1-[2-[7-[(1~{R},2~{R},4~{S})-2-amino-7-azabicyclo[2.2.1]heptane-7-carbonyl]-5-methoxy-3-methylimidazo [1,2-a]pyridin-2-yl]-1-(cyclopropylmethyl)pyrrolo [2,3-b]pyridin-6-yl]ethyl]-3-(trifluoromethyl)morpholine-4-carboxamide] | 7.36 |
| COc1cc(C(=O)N2[C@H]3CC[C@@H]2[C@H](N)C3)cc2nc(-c3cc4ccc([C@@H](C)NC(=O)N5CCO[C@@H](C)C5)nc4n3CC3CC3)c(C)n12 [Example 201, (2~{S})-~{N}-[(1~{R})-1-[2-[7-[(1~{R},2~{R},4~{S})-2-amino-7-azabicyclo[2.2.1]heptane-7-carbonyl]-5-methoxy-3-methylimidazo [1,2-a]pyridin-2-yl]-1-(cyclopropylmethyl)pyrrolo [2,3-b]pyridin-6-yl]ethyl]-2-methylmorpholine-4-carboxamide] | 7.76 |
| COc1cc(C(=O)N2[C@H]3CC[C@@H]2[C@H](N)C3)cc2nc(-c3cc4ccc([C@@H](C)NC(=O)N5CC(OC(F)(F)F)C5)nc4n3CC3CC3)c(C)n12 [Example 202, ~{N}-[(1~{R})-1-[2-[7-[(1~{R},2~{R},4~{S})-2-amino-7-azabicyclo[2.2.1]heptane-7-carbonyl]-5-methoxy-3-methylimidazo [1,2-a]pyridin-2-yl]-1-(cyclopropylmethyl)pyrrolo [2,3-b]pyridin-6-yl]ethyl]-3-(trifluoromethoxy)azetidine-1-carboxamide] | 7.28 |
| COc1cc(C(=O)N2[C@H]3CC[C@@H]2[C@H](N)C3)cc2nc(-c3cc4ccc([C@@H](C)NC(=O)N5CCC(C(C)(C)O)C5)nc4n3CC3CC3)c(C)n12 (stereo partly drawn) [Example 203, ~{N}-[(1~{R})-1-[2-[7-[(1~{R},2~{R},4~{S})-2-amino-7-azabicyclo[2.2.1]heptane-7-carbonyl]-5-methoxy-3-methylimidazo [1,2-a]pyridin-2-yl]-1-(cyclopropylmethyl)pyrrolo [2,3-b]pyridin-6-yl]ethyl]-3-(2-hydroxypropan-2-yl) pyrrolidine-1-carboxamide] | 7.49 |
| COc1cc(C(=O)N2[C@H]3CC[C@@H]2[C@H](N)C3)cc2nc(-c3cc4ccc([C@@H](C)NC(=O)NC5CC6(CC6)C5)nc4n3CC3CC3)c(C)n12 [Example 204, 1-[(1~{R})-1-[2-[7-[(1~{R},2~{R},4~{S})-2-amino-7-azabicyclo[2.2.1]heptane-7-carbonyl]-5-methoxy-3-methylimidazo [1,2-a]pyridin-2-yl]-1-(cyclopropylmethyl)pyrrolo [2,3-b]pyridin-6-yl]ethyl]-3-spiro[2.3]hexan-5-ylurea] | 7.52 |
| COc1cc(C(=O)N2[C@H]3CC[C@@H]2[C@H](N)C3)cc2nc(-c3cc4ccc([C@@H](C)NC(=O)N5CC(OC(F)F)C5)nc4n3CC3CC3)c(C)n12 [Example 205, ~{N}-[(1~{R})-1-[2-[7-[(1~{R},2~{R},4~{S})-2-amino-7-azabicyclo[2.2.1]heptane-7-carbonyl]-5-methoxy-3-methylimidazo [1,2-a]pyridin-2-yl]-1-(cyclopropylmethyl)pyrrolo [2,3-b]pyridin-6-yl]ethyl]-3-(difluoromethoxy)azetidine-1-carboxamide] | 7.46 |
